The values that follow come from PubChem BioAssay AID1259371 (The Scripps Research Institute Molecular Screening Center, 2018).

Structures are written as SMILES. The source made the active and inactive calls. The rule behind the calls is not given here.

Sequence of Microphthalmia-associated transcription factor (Homo sapiens) (O75030 whole entry, looked up): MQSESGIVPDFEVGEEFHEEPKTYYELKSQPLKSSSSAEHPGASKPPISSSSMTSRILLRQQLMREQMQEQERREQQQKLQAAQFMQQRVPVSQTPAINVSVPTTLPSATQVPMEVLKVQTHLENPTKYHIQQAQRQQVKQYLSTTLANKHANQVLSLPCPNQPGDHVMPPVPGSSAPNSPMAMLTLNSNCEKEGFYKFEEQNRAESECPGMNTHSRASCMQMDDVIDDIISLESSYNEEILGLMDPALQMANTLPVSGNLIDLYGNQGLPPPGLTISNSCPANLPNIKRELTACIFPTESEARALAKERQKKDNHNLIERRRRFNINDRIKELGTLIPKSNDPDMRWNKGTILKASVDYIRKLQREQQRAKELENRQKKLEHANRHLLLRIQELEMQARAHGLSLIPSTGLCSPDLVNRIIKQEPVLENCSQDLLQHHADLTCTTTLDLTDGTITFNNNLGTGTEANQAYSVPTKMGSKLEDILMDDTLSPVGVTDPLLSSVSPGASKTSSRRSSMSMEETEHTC

The experiment addresses Microphthalmia-associated transcription factor (Homo sapiens) (UniProt O75030). The experiment in a line: compounds blocking human MITF signal – biochemical, AlphaScreen, dose response (AID 1259371). As to conditions: AlphaScreen biochemical MITF assay, signal inhibition. For orientation: Bead proximity is the source of the signal in Alpha formats.
For orientation: IC50 means the concentration at which inhibition is half-maximal. As for `N=C1S/C(=C\c2ccco2)C(=O)N1c1nonc1N`, the IC50 was 0.034 µM. To `COc1cccc(COC(=O)Nc2ccc(-c3cn[nH]c3)cc2N(C)CCN(C)C)c1` belongs “inactive”; to `O=c1cc(/C=C/c2ccc(O)cc2)nc2nn[nH]n12`, “inactive”. The entry for `O=C(NC1CCCCC1)N1CCN2C(=O)[C@@H]3CSCN3C(=O)[C@H]2C1` is “inactive”. To `CN(C)CCCNC(=O)c1cccc(CN(C(=O)c2nc3ccc(-c4cn[nH]c4)cc3s2)C2CC2)c1` belongs “inactive”. With `CCN(CC)CC(=O)Nc1ccc(OC)cc1`, the IC50 is > 6.48 µM (inactive). The entry for `NC(=O)c1cc(NC(=O)COC(=O)COc2cccc(C(F)(F)F)c2)cc(C(N)=O)c1` is “inactive”.

`COc1cccc(CN2CCC(CNc3ccc(-c4ccncc4)cc3)C2)c1` (stereo not given): the IC50 is 0.285 µM. To `COc1ccc(OC)c(NC(=O)c2cc3ccc(O)cc3oc2=Nc2ccc(C(=O)O)cc2)c1` belongs 0.981 µM; to `O=C(Nc1ccc(Cl)cc1Cl)N1CCN2C(=O)[C@@H]3CSCN3C(=O)[C@H]2C1`, “inactive”; to `Cc1ccc(C(=O)N/C(=C/c2ccc([N+](=O)[O-])o2)C(=O)O)cc1`, “inactive”.

Take `CCOc1ccc(CN2CCN(Cc3cccnc3)CC2)cc1`: the IC50 is > 5.78 µM (inactive). To `COc1cc2cc3c(N)c(C(=O)Nc4sc(C)c(C)c4C#N)sc3nc2cc1OC` belongs 0.409 µM. With `C[C@H]1NC(=O)[C@H]2CN(C(=O)NCc3ccccc3)CCN2C1=O`, the IC50 entry was “inactive”.

Take `COC(=O)CN1C(=O)S/C(=C/c2ccc([N+](=O)[O-])o2)C1=O`: the IC50 entry is “inactive”.

As to `O=C(O)c1cccc2c1C(=O)N(c1ccccc1)C2`, the IC50 result is “inactive”. For `NC(=O)CSc1ccc(C(N)=O)cc1[N+](=O)[O-]`, the IC50 entry is “inactive”. The figure for `CCOC(=O)C1C2NC(=S)N(c3ccc(CC)cc3)C1(C)Oc1c(OCC)cccc12` (stereo not given) is > 5.53 µM (inactive); for `CC[C@H](C)[C@@H]1NC(=O)[C@H]2CN(C(=O)NCc3ccccc3)CCN2C1=O` it is “inactive”; for `Cc1ccc2[nH]c(=O)c(=O)[nH]c2c1` it is > 12.1 µM (inactive). The figure for `O=S(=O)(O)c1ccc(N/N=C2\CCc3ccccc32)cc1` is > 2.16 µM (inactive); for `CCC[C@@H]1NC(=O)[C@H]2CN(C(=O)NCc3ccccc3)CCN2C1=O` it is 0.826 µM. As to `Cc1cccc(CN2CCN(C3CCC(C)CC3)CC2)c1` (stereo not given), the IC50 is > 5.54 µM (inactive). To `NC(=O)n1c(CCC(=O)O)nc2sc3c(c2c1=O)CCC3` belongs 0.211 µM. The entry for `O=C(NCCc1ccc(O)cc1)c1ccnc(-c2cccs2)c1` is “inactive”; for `C[C@@H](OCc1ccccc1)[C@@H]1NC(=O)[C@H]2CN(C(=O)NCc3ccccc3)CCN2C1=O` it is “inactive”; for `COc1c(O)cc(O)cc1O` it is “inactive”. To `O=C1N[C@@H](Cc2c[nH]c3ccccc23)C(=O)N2CCN(C(=O)NC3CCCCC3)C[C@H]12` belongs “inactive”. As to `S=c1[nH]nc(-c2ccncc2)n1/N=C/C=C/c1ccco1`, the IC50 was 0.207 µM. The figure for `O=C1c2ccc([N+](=O)[O-])cc2C(=O)N1c1cc(Br)c(O)c(Br)c1` is 0.162 µM; for `Cc1ccccc1/C=C1\N=C(c2cc(C3=N/C(=C/c4ccccc4C)C(=O)O3)cc(C3=N/C(=C/c4ccccc4C)C(=O)O3)c2)OC1=O` it is “inactive”. As to `CN(C)CCS(=O)c1cc(-c2cn[nH]c2)ccc1NC(=O)[C@H]1Cc2cc(F)ccc2CN1` (stereo not given in full), the IC50 result is “inactive”. To `COc1cc(OC)c(OC)cc1CN1CCN(Cc2ccc(C)cc2)CC1` belongs > 5.76 µM (inactive); to `Nc1cccc(N2C(=O)c3cc(S(=O)O)cc4c(N)c(S(=O)O)cc(c34)C2=O)c1`, “inactive”. For `O=C(O)c1cc(S(=O)(=O)Nc2ccncc2)ccc1O`, the IC50 result was “inactive”. To `O=C1N[C@@H](COCc2ccccc2)C(=O)N2CCN(C(=O)NC3CCCCC3)C[C@H]12` belongs “inactive”. For `O=C(/C=C/c1ccco1)NCCCCCCNC(=O)/C=C/c1ccco1`, the IC50 result was “inactive”.

With `c1ccc(COc2ccc(OCCCCn3ccnc3)cc2)cc1`, the IC50 is > 6.48 µM (inactive). To `CN(C)CCN(C(=O)OCc1ccccc1)c1cc(-c2cn[nH]c2)ccc1NC(=O)OCc1ccccc1` belongs “inactive”; to `COc1ccc(S(=O)(=O)CCC(=O)Nc2nc3ccc(OC)cc3s2)cc1`, > 4.55 µM (inactive).
